Data on 26 compounds can be found in patent US6391902B1, “Substituted benzofuranoindoles and indenoindoles as novel potassium channel openers” (American Home Products Corporation, priority 1998, dated 2002).

Marks after values point to notes of the source that are not given here. Where only a bound is given, the exact number is not on record here.

One data set relates to Bladder Tissue. In words: Relaxation of KCl-stimulated isolated rat bladder strips (contractile activity). Also on record: species or system Sprague-Dawley rats. The conditions noted are these: for inhibition at 30 µM: read-out: Bladder Tissue I = Percent inhibition at 30 μM. The method, then:
Sprague-Dawley rats (150-200 g) are rendered unconscious by CO2 asphyxiation and then euthanized by cervical dislocation. The bladder is removed into warm (37° C.) physiological salt solution (PSS) of the following composition (mM): NaCl, 118.4; KCl, 4.7; CaCl2, 2.5; […]; NaHCO3, 24.9; KH2PO4, 1.2; glucose, 11.1; EDTA, 0.023; gassed with 95% O2; […]; pH 7.4. The bladder is opened and then cut into strips 1-2 mm in width and 7-10 mm in length. The strips are subsequently suspended in a 10 mL tissue bath under an initial resting tension of 1.5 g. The strips are held in place by two surgical clips one of which is attached to a fixed hook while the other is attached to an isometric force transducer. […] The carbachol is then washed out and the tissue allowed to relax to its resting level of activity. Following a further 30 min period of recovery an additional 15 mM KCl re introduced into the tissue bath. […] Following stabilization of this enhanced level of contractile activity, incremental increases in the concentration of test compound or vehicle are introduced into the tissue bath. Contractile activity is measured for each compound or vehicle concentration during the last minute of a 30 minute challenge.

The next data set relates to Aorta Tissue. In words: Relaxation of KCl-contracted isolated rat thoracic aortic rings (contractile force). Also on record: species or system Sprague-Dawley rats. The conditions noted are these: for IC50: Rattus norvegicus; for Ratio Aorta IC50 / Bladder IC50: aorta IC50 divided by bladder IC50, tissue selectivity. The method, then: The smooth muscle (aorta) relaxing activity of the compounds of this ivention was established in accordance with standard pharmaceutically accepted test procedures with representative compounds as follows.
Male Sprague-Dawley rats (150-200 g) are rendered unconscious by CO2 asphyxiation and then euthanized by cervical dislocation. The thoracic aorta is removed into warm (37° C.) physiological sial solution (PSS) of the following composition (mM): NaCl, 118.4; KCl, 4.7; CaCl2, 2.5; MgSO4.7H2O, 1.2; NaHCO3, 24.9; KH2PO4, 1.2; glucose, 11.1; EDTA, 0.023; gassed with 95% O2/5% CO2; pH 7.4. The aorta is cleaned of fat and loose adventitia and cut into rings 3-4 mm in width. The rings are subsequently suspended between two stainless steel wire tissue holders in a 10 mL tissue bath. One wire tissue holder is attached to a fixed hook while the other is attached to an isometric force transducer. Resting tension is set at 1 g. The tissues are to recover for a period of 60 min prior to beginning the experiment. Tissues are challenged with PSS containing 25 mM KCl to elicit a contracture. The tissues are then washed repeatedly with fresh PSS over a period of 30 min and allowed to recover to baseline tension. PSS containing 30-35 mM KCl is then introduced into the tissue bath to evoke a contracture that is allowed to stabilize for not less than 45 min. (Other stimuli such as norepinephrine, PGF2a, histamine, angiotensin II, endothelin or PSS containing 80 mM KCl may also be used to evoke a contracture as necessary). Increasing concentrations of test compound or vehicle are then added to the tissue bath in a cumulative fashion.
Isometric force development by the aortic rings is measured using a force transducer and recorded on a polygraph. The percentage inhibition of contractile force evoked by each concentration of a given test compound is used to generate a concentration-response curve. […] [Log concentration versus response curves are approximately linear between 20% and 80% of the maximum response. As such, the IC50 concentration of the drug is determined by linear regression analysis (where x=log concentration and y=% inhibition) of the data points in the 20% to 80% region of the curve.] […] Data collected from 2 animals are averaged for primary screens.

[1] abbreviates: rat bladder strips, additional 15 mM KCl, 30 μM test compound.

The inhibition is the relative decrease from the control value, in per cent. A word on the melting point: it is the temperature, or range, at which the solid turns liquid. In the case of `CCC(C)(C)NC(=O)c1cccc2c1[nH]c1c3cc(Br)ccc3oc21` [Example 13, 8-Bromo-10H-benzo[4,5]furo[3,2-b]indole-1-carboxylic acid (1,1-dimethyl-propyl)-amide], the melting point is 242 to 244 °C (dec.). In addition, in the data set with Bladder Tissue (setting [1]), the inhibition at 30 µM came out at 28.5%.
Compound `COC(=O)c1cccc2c3oc4ccc(Br)cc4c3n(C)c12` [Example 15, 8-Bromo-10-methyl-10H-benzo[4,5]furo[3,2-b]indole-1-carboxylic acid methyl ester] registered a melting point of 195 to 196 °C. Further, the inhibition at 30 µM in the data set with Bladder Tissue (setting [1]) amounted to 4.5%.
What is called IC50 is the concentration needed to halve the response being measured. `O=C(O)c1cccc2c1[nH]c1c3cc(Cl)ccc3oc21` [Example 3, 8-Chloro-10H-benzo[4,5]furo[3,2-b]indole-1-carboxylic acid]: the melting point is 303 °C (dec.). In the data set on Bladder Tissue (Rattus norvegicus, 0.5 h), this compound gave an IC50 of 5.8 ± 1.5 µM. Besides, in the data set with Aorta Tissue, half-maximal inhibition (IC50) was put at 268 ± 82.3 µM and the “Ratio Aorta IC50 / Bladder IC50” value is 46.2.
In turn, `O=Cc1cccc2c1[nH]c1c3cc(Br)ccc3oc21` [Example 9, 8-Bromo-10H-benzo[4,5]furo[3,2-b]indole-1-carbaldehyde] showed a melting point of 280 to 281 °C. Moreover, the inhibition at 30 µM with Bladder Tissue (setting [1]) was 19%.
`CN(O)C(=O)c1cccc2c1[nH]c1c3cc(Br)ccc3oc21` [Example 8, 8-Bromo-10H-benzo[4,5]furo[3,2-b]indole-1-carboxylic acid hydroxy-methyl amide] gave a melting point of 174 to 175 °C. The IC50 in the data set on Bladder Tissue (Rattus norvegicus, 0.5 h) was found to be 19.8 ± 4.02 µM. For the same compound, in the data set on Aorta Tissue, half-maximal inhibition (IC50) required 8.1 ± 3.6 µM and the “Ratio Aorta IC50 / Bladder IC50” value came out at 0.41.
Take `CNC(=O)c1cccc2c1[nH]c1c3cc(Br)ccc3oc21` [Example 14, 8-Bromo-10H-benzo[4,5]furo[3,2-b]indole-1-carboxylic acid methylamide]: the melting point is 264 to 265 °C (dec.). The inhibition at 30 µM in the data set with Bladder Tissue (setting [1]) was determined as 4.8%.
With `O=C(O)c1cccc2c1[nH]c1c3cc(Br)ccc3oc21` [Example 1, 8-Bromo-10H-benzo[4,5]furo[3,2-b]indole-1-carboxylic acid], the melting point was in the range of 312 to 313 °C. The same compound came in with an IC50 in the data set on Bladder Tissue (Rattus norvegicus, 0.5 h) of 15.1 ± 4.7 µM. In the data set with Aorta Tissue, the IC50 amounted to 119 ± 21.8 µM and the “Ratio Aorta IC50 / Bladder IC50” value came out at 7.9.
Take `NC(=O)c1cccc2c1[nH]c1c3cc(Br)ccc3oc21` [Example 5, 8-Bromo-10H-benzo[4,5]furo[3,2-b]indole-1-carboxylic acid amide]: the melting point lay in the range of 300 to 301 °C. Further, the inhibition at 30 µM with Bladder Tissue (setting [1]) is 13.5%.
Taken in the same sequence, the figures for `CCOC(=O)c1cccc2c1Cc1c-2[nH]c2ccc(Br)cc12` [Example 23, 8-Bromo-5,10-dihydro-indeno[1,2-b]indole-1-carboxylic acid ethyl ester] were 198 to 200 °C and 20%.
With `O=C(O)c1cccc2c1[nH]c1c3ccccc3oc21` [Example 16, 10H-Benzo[4,5]furo[3,2-b]indole-1-carboxylic acid], the melting point is 279 to 280 °C (dec.). In the data set with Bladder Tissue (Rattus norvegicus, 0.5 h), this compound had an IC50 of 31 ± 6.5 µM.
In the case of `O.O.O=C(O)c1cccc2c1[nH]c1c3cc([N+](=O)[O-])ccc3oc21` [Example 4, 8-Nitro-10H-benzo[4,5]furo[3,2-b]indole-1-carboxylic acid dihydrate], half-maximal inhibition in the data set on Bladder Tissue (Rattus norvegicus, 0.5 h) (IC50) required 6.3 ± 2.6 µM. Moreover, in the data set on Aorta Tissue, the IC50 is 125 ± 13.8 µM and the “Ratio Aorta IC50 / Bladder IC50” value came out at 19.8.
On to `N#Cc1cccc2c1[nH]c1c3cc(Br)ccc3oc21` [Example 10, 8-Bromo-10H-benzo[4,5]furo[3,2-b]indole-1-carbonitrile hydrate], for which the inhibition at 30 µM with Bladder Tissue (setting [1]) was 10.1%.
For `O=C(O)c1cccc2c1Cc1c-2[nH]c2ccc(I)cc12` [Example 17, 8-Iodo-5,10-dihydro-indeno[1,2-b]indole-1-carboxylic acid 0.6 hydrate], the IC50 in the data set with Bladder Tissue (rat bladder strips, additional 15 mM KCl, 50% inhibition of pre-drug contractile activity, 30 minute challenge) was 10.1 ± 3.2 µM.
In turn, `COC(=O)c1cccc2c1[nH]c1c3cc(Br)ccc3oc21` [Example 6, 8-Bromo-10H-benzo[4,5]furo[3,2-b]indole-1-carboxylic acid methyl ester] showed a melting point of 204 to 205 °C. Moreover, in the data set on Bladder Tissue (setting [1]), the inhibition at 30 µM is 31%.
`CC(NC(=O)c1cccc2c1[nH]c1c3cc(Br)ccc3oc21)C(C)(C)C` (centres unmarked) [Example 12, 8-Bromo-10H-benzo[4,5]furo[3,2-b]indole-1-carboxylic acid (1,2,2-trimethyl-propyl)-amide] gave a melting point of 173 to 175 °C. The compound further showed an IC50 with Bladder Tissue (Rattus norvegicus, 0.5 h) of 13.9 ± 0.95 µM. Besides, in the data set on Aorta Tissue, the IC50 is 25 ± 3.9 µM and the “Ratio Aorta IC50 / Bladder IC50” value is given as 1.8.
Taken in the same sequence, the figures for `O=C(O)c1cccc2c1Cc1c-2[nH]c2ccc(F)cc12` [Example 19, 8-Fluoro-5,10-dihydro-indeno[1,2-b]indole-1-carboxylic acid] were over 300 °C, 12.5 ± 5 µM, 46.6 ± 18.7 µM and 3.74.
The like results for `O=C(O)c1cccc2c1Cc1c-2[nH]c2ccc(Br)cc12` [Example 25, 8-Bromo-5,10-dihydro-indeno[1,2-b]indole-1-carboxylic acid] were, in that order, 328 to 330 °C (dec.), 4.4 ± 0.95 µM, 110 ± 12.4 µM and 25.
Turning to `N#Cc1cccc2c1[nH]c1c3cc(Br)ccc3oc21.O` (hydrate or solvate) [Example 10, 8-Bromo-10H-benzo[4,5]furo[3,2-b]indole-1-carbonitrile hydrate], the melting point is 277 to 280 °C (dec.).
Turning to `Brc1ccc2oc3c4cccc(-c5nnn[nH]5)c4[nH]c3c2c1` [Example 11, 8-Bromo-1-(1H-tetrazol-5-yl)-10H-benzo[4,5]furo[3,2-b]indole], the melting point was 275 to 277 °C (dec.). Also, the inhibition at 30 µM in the data set with Bladder Tissue (setting [1]) was determined as 30.9%.
For the compound `CCOC(=O)c1cccc2c1Cc1c-2[nH]c2ccc(Cl)cc12` [Example 22, 8-Chloro-5,10-dihydro-indeno[1,2-b]indole-1-carboxylic acid ethyl ester], the melting point was in the range of 202 to 204 °C. For the same compound, the inhibition at 30 µM with Bladder Tissue (setting [1]) was found to be 8%.
Regarding `O=C(O)c1cccc2c3c([nH]c12)-c1cc(Br)ccc1C3` [Example 26, 3-Bromo-5,10-dihydro-indeno[1,2-b]indole-6-carboxylic acid], the melting point was 245 to 247 °C (dec.). This compound registered an IC50 in the data set on Aorta Tissue of 210 ± 45 µM.
Consider `OCc1cccc2c1[nH]c1c3cc(Br)ccc3oc21` [Example 7, (8-Bromo-10H-benzo[4,5]furo[3,2-b]indol-1-yl)-methanol], for which the melting point was in the range of 218 to 219 °C.
Regarding `O.O.O=C(O)c1cccc2c1[nH]c1c3cc([N+](=O)[O-])ccc3oc21` (hydrate or solvate) [Example 4, 8-Nitro-10H-benzo[4,5]furo[3,2-b]indole-1-carboxylic acid dihydrate], the melting point was 325 °C (dec.).
`O=C(O)c1cccc2c1Cc1c-2[nH]c2ccc(Cl)cc12` [Example 20, 8-Chloro-5,10-dihydro-indeno[1,2-b]indole-1-carboxylic acid]: the melting point was over 300 °C. For the same compound, the midpoint of inhibition in the data set with Bladder Tissue (Rattus norvegicus, 0.5 h), the IC50, lay at 22.6 ± 1.8 µM.
Taken in the same sequence, the figures for `O=C(O)c1cccc2c1Cc1c-2[nH]c2ccc(OC(F)(F)F)cc12` [Example 21, 8-Trifluoromethoxy-5,10-dihydro-indeno[1,2-b]indole-1-carboxylic acid] were 256 to 265 °C (dec.) and 15.4 ± 4.8 µM.
As to `NS(=O)(=O)c1ccc2[nH]c3c(c2c1)Cc1c(C(=O)O)cccc1-3.NS(=O)(=O)c1ccc2[nH]c3c(c2c1)Cc1c(C(=O)O)cccc1-3.O` [Example 18, 8-Sulfamoyl-5,10-dihydro-indeno[1,2-b]indole-1-carboxylic acid hemi-hydrate], the “Bladder Tissue I = Percent inhibition at 30 μM” value with Bladder Tissue (setting [1]) is recorded as “I = 5.2%*”.
